Article PMC6695355, “Alanine Scanning Studies of the Antimicrobial Peptide Aurein 1.2” (Probiotics and Antimicrobial Proteins, 2018)
≈ marks a conversion by molar mass, not a printed value. Where a SMILES comes first, the peptide text is derived from it.

Assays:
[1] = system: P. aeruginosa ATCC 9027; format: cell-based, Pseudomonas aeruginosa; details: ATCC 9027, 18 h
Method: (§1) The minimum inhibitory concentrations (MICs) of test compounds were assessed by broth microdilution method on 96-well plates, according to the guidelines of Clinical and Laboratory Standards Institute (CLSI). For this purpose, reference strains of bacteria: S. aureus ATCC 25923, E. faecalis PCM 2673, E. coli ATCC 25922, and P. aeruginosa ATCC 9027; and fungus: C. albicans ATCC 10231 were used (The Polish Collection of Microorganism, Polish Academy of Sciences, Wrocław, Poland). Bacteria at initial inoculums of 0.5 × 10^5 CFU/mL in Mueller Hinton Broth (MHB), and fungi at initial inoculums of 2 × 10^3 CFU/mL in RPMI-1640, were exposed to the compounds over the concentration range of 1–512 μg/mL. The polystyrene plates were incubated at 37 °C for 18 h with bacteria and for 24 h with C. albicans. The MIC was taken as the lowest concentration at which a noticeable growth of microorganisms was inhibited. Minimum biofilm eradication concentrations (MBECs) were determined using a previously described protocol. For this purpose, 96-well polystyrene flat-bottom plates and a resazurin (7-hydroxy-3H-phenoxazin-3-one 10-oxide) were used. In this assay, a specific feature of resazurin is utilized, which upon the contact with living cells is metabolized and reduced from the basic blue form to pink resorufin. Briefly, 24-h cultures of microorganisms were diluted 1,000-fold and 100 μL of that suspension was added into the test plates. After 24 h of incubation at 37 °C, the wells of the plates were rinsed three times with phosphate buffer saline (PBS) to remove non-adherent cells. Subsequently, 100 μL of test compounds in concentration range (diluted in appropriate media) were added to each well. After 24 h of incubation at 37 °C, 20 μL of the resazurin (4 mg/mL) was added. The MBEC was read after 1 h. Additionally, anti-adhesive properties of the compounds were also analyzed. The assay was conducted on 96-well polystyrene flat-bottom plates. The preparation of inoculums was followed by a 500-fold dilution of 24-h cultures of microorganisms. Briefly, to evaluate the effect of the peptides in preventing biofilm formation, 50 μL of compounds in concentration range, diluted in appropriate medium, were prepared. Subsequently, the 50 μL of the bacterial/fungal inoculums were added to reach the same microbial density as that in MBEC assay. After 24 h of incubation at 37 °C, the wells were rinsed three times with PBS and the fresh media with resazurin (0.6 mg/mL) were added. Then, after 1 h of incubation, the minimum biofilm inhibitory concentrations (MBIC) were read. MBECs as well as MBICs were determined as the lowest concentration at which the reduction of resazurin was lower or equal (10% ± 0.5%) as compared to positive (100%) and negative (0%) controls. All experiments were performed in triplicate.

[2] = system: P. aeruginosa ATCC 9027 biofilm formation; format: cell-based, Pseudomonas aeruginosa; details: ATCC 9027, 24 h
Method: as §1

[3] = system: P. aeruginosa ATCC 9027 biofilm; format: cell-based, Pseudomonas aeruginosa; details: ATCC 9027, 24 h
Method: as §1

[4] = system: E. coli ATCC 25922; format: cell-based, Escherichia coli; details: ATCC 25922, 18 h
Method: as §1

[5] = system: E. coli ATCC 25922 biofilm formation; format: cell-based, Escherichia coli; details: ATCC 25922, 24 h
Method: as §1

[6] = system: E. coli ATCC 25922 biofilm; format: cell-based, Escherichia coli; details: ATCC 25922, 24 h
Method: as §1

[7] = system: C. albicans ATCC 10231 biofilm formation; format: cell-based, Candida albicans; details: ATCC 10231, 24 h
Method: as §1

[8] = system: C. albicans ATCC 10231 biofilm; format: cell-based, Candida albicans; details: ATCC 10231, 24 h
Method: as §1

[9] = system: C. albicans ATCC 10231; format: cell-based, Candida albicans; details: ATCC 10231, 24 h
Method: as §1

[10] = system: S. aureus ATCC 25923; format: cell-based, Staphylococcus aureus; details: ATCC 25923, 18 h
Method: as §1

[11] = system: S. aureus ATCC 25923 biofilm formation; format: cell-based, Staphylococcus aureus; details: ATCC 25923, 24 h
Method: as §1

[12] = system: S. aureus ATCC 25923 biofilm; format: cell-based, Staphylococcus aureus; details: ATCC 25923, 24 h
Method: as §1

[13] = in vitro; format: in vitro ADME; details: bovine, serum
Method: To assess serum stability, the peptides (0.5 mg) were dissolved in 4 mL of 25% (v/v) fetal bovine serum (FBS) in PBS and incubated at 37 °C. The aliquots of 100 μL of the test samples were transferred to 96-well polystyrene plates in triplicate for each time point. Samples were quenched at zero time (t0) and after 6 h of incubation at 37 °C by addition of 100 μL of ice-cold acetonitrile and stored at 4 °C for 10 min. Afterwards, the samples were centrifuged at 13,000×g for 20 min at 4 °C and diluted 1:1 with HPLC-grade water. All samples were analyzed using the Waters Alliance e2695 system with Waters Acquity QDa Detector (software–Empower®3). Analyses were conducted on an Agilent Zorbax SB-C18 RP-18 column (4.6 × 50 mm, 1.8-μm particle size, 80-Å pore size) using a linear 30–60% acetonitrile (B) gradient in deionized water (A) over 6 min at 25.0 ± 0.1 °C, at a flow rate of 0.5 mL/min and MS working in selected ion recording (SIR) mode (A—0.1% aqueous formic acid (FA) and B—0.1% FA in acetonitrile). The percentage of peptide remaining intact was calculated from peak areas of samples at t0 and after 6 h of incubation in serum (the % of remaining peptide = peak area after 6 h/peak area at t0). The mass-to-charge ratios selected for SIR mode were based on values obtained from full spectrum analysis of each peptide and are presented in Table 1.

[14] = system: E. faecalis PCM 2673 biofilm; format: cell-based, Enterococcus faecalis; details: 24 h
Method: as §1

[15] = system: E. faecalis PCM 2673; format: cell-based, Enterococcus faecalis; details: PCM 2673, 18 h
Method: as §1

[16] = system: E. faecalis PCM 2673 biofilm formation; format: cell-based, Enterococcus faecalis; details: 24 h
Method: as §1

[17] = system: human red blood cells (RBCs); test: Hemolysis assay; format: cell-based; details: red cells of human, 1 h
Method: The hemolytic activity of the peptides was determined using fresh human red blood cells (RBCs) collected from a healthy human donor according to the procedure described in the literature. Fresh RBCs with EDTA as anticoagulant were rinsed three times with a PBS by centrifugation at 800×g for 10 min and resuspension in PBS. Serial dilution of the peptides in PBS (1–256 μg/mL) on 96-well polystyrene plates was prepared and the stock solution of RBCs was added up to a final volume of 100 μL with a 4% concentration of erythrocytes (v/v). The control wells for 0 and 100% hemolysis contained of RBCs suspended in PBS and 1% of Triton-X 100, respectively. Subsequently, the plates were incubated for 1 h at 37 °C and then centrifuged at 800×g for 10 min at 4 °C (Sorvall ST 16R Centrifuge, Thermo Scientific). After centrifugation, the supernatant was carefully […] to new microtiter plates and the release of hemoglobin was measured at 540 nm (Multiskan™ GO Microplate Spectrophotometer, Thermo Scientific). All experiments were conducted in triplicate.

CC[C@H](C)[C@H](NC(=O)[C@H](CCCCN)NC(=O)[C@H](CCCCN)NC(=O)[C@H](C)NC(=O)[C@@H](NC(=O)[C@H](CC(=O)O)NC(=O)[C@H](Cc1ccccc1)NC(=O)[C@H](CC(C)C)NC(=O)CN)[C@@H](C)CC)C(=O)N[C@@H](C)C(=O)N[C@@H](CCC(=O)O)C(=O)N[C@@H](CO)C(=O)N[C@@H](Cc1ccccc1)C(N)=O [Peptide I6A] (H-GLFDIAKKIAESF-NH2)
MIC, P. aeruginosa ATCC 9027 [1]: > 512 µg/mL | MBIC, P. aeruginosa ATCC 9027 [2]: > 512 µg/mL | MBEC, P. aeruginosa ATCC 9027 [3]: > 512 µg/mL | MIC, E. coli ATCC 25922 [4]: 512 µg/mL (≈ 356 µM) | MBIC, E. coli ATCC 25922 [5]: 512 µg/mL | MBEC, E. coli ATCC 25922 [6]: > 512 µg/mL | MBIC, C. albicans ATCC 10231 [7]: 4 µg/mL | MBEC, C. albicans ATCC 10231 [8]: > 512 µg/mL | MIC, C. albicans ATCC 10231 [9]: 256 µg/mL (≈ 178 µM) | MIC, S. aureus ATCC 25923 [10]: > 512 µg/mL | MBIC, S. aureus ATCC 25923 [11]: > 512 µg/mL | MBEC, S. aureus ATCC 25923 [12]: > 512 µg/mL | remaining at 6 h, 0.125 mg/mL [13]: 29% | MBEC, E. faecalis PCM 2673 [14]: > 512 µg/mL | MIC, E. faecalis PCM 2673 [15]: 256 µg/mL (≈ 178 µM) | MBIC, E. faecalis PCM 2673 [16]: > 512 µg/mL | Percentage of hemolysis at 1 μg/mL [17]: 0.4% | Percentage of hemolysis at 2 μg/mL [17]: 0.6% | Percentage of hemolysis at 4 μg/mL [17]: 0.5% | Percentage of hemolysis at 8 μg/mL [17]: 0.3% | Percentage of hemolysis at 16 μg/mL [17]: 0.1% | Percentage of hemolysis at 32 μg/mL [17]: 0.0% | Percentage of hemolysis at 64 μg/mL [17]: 0.1% | Percentage of hemolysis at 128 μg/mL [17]: 0.1% | Percentage of hemolysis at 256 μg/mL [17]: 0.1%

CC[C@H](C)[C@H](NC(=O)[C@H](CC(=O)O)NC(=O)[C@H](Cc1ccccc1)NC(=O)[C@H](CC(C)C)NC(=O)CN)C(=O)N[C@H](C(=O)N[C@@H](CCCCN)C(=O)N[C@@H](CCCCN)C(=O)N[C@@H](C)C(=O)N[C@@H](C)C(=O)N[C@@H](CCC(=O)O)C(=O)N[C@@H](CO)C(=O)N[C@@H](Cc1ccccc1)C(N)=O)[C@@H](C)CC [Peptide I9A] (H-GLFDIIKKAAESF-NH2)
MIC, P. aeruginosa ATCC 9027 [1]: > 512 µg/mL | MBIC, P. aeruginosa ATCC 9027 [2]: > 512 µg/mL | MBEC, P. aeruginosa ATCC 9027 [3]: > 512 µg/mL | MIC, E. coli ATCC 25922 [4]: 512 µg/mL (≈ 356 µM) | MBIC, E. coli ATCC 25922 [5]: >512 µg/mL | MBEC, E. coli ATCC 25922 [6]: > 512 µg/mL | MBIC, C. albicans ATCC 10231 [7]: 16 µg/mL | MBEC, C. albicans ATCC 10231 [8]: > 512 µg/mL | MIC, C. albicans ATCC 10231 [9]: 512 µg/mL (≈ 356 µM) | MIC, S. aureus ATCC 25923 [10]: > 512 µg/mL | MBIC, S. aureus ATCC 25923 [11]: > 512 µg/mL | MBEC, S. aureus ATCC 25923 [12]: > 512 µg/mL | remaining at 6 h, 0.125 mg/mL [13]: 6% | MBEC, E. faecalis PCM 2673 [14]: > 512 µg/mL | MIC, E. faecalis PCM 2673 [15]: 128 µg/mL (≈ 89 µM) | MBIC, E. faecalis PCM 2673 [16]: > 512 µg/mL | Percentage of hemolysis at 1 μg/mL [17]: 0.6% | Percentage of hemolysis at 2 μg/mL [17]: 0.6% | Percentage of hemolysis at 4 μg/mL [17]: 0.3% | Percentage of hemolysis at 8 μg/mL [17]: 0.1% | Percentage of hemolysis at 16 μg/mL [17]: 0.0% | Percentage of hemolysis at 32 μg/mL [17]: 0.0% | Percentage of hemolysis at 64 μg/mL [17]: 0.0% | Percentage of hemolysis at 128 μg/mL [17]: 0.0% | Percentage of hemolysis at 256 μg/mL [17]: 0.0%

CC[C@H](C)[C@H](NC(=O)[C@H](CCCCN)NC(=O)[C@H](CCCCN)NC(=O)[C@@H](NC(=O)[C@@H](NC(=O)[C@H](CC(=O)O)NC(=O)[C@H](Cc1ccccc1)NC(=O)[C@H](C)NC(=O)CN)[C@@H](C)CC)[C@@H](C)CC)C(=O)N[C@@H](C)C(=O)N[C@@H](CCC(=O)O)C(=O)N[C@@H](CO)C(=O)N[C@@H](Cc1ccccc1)C(N)=O [Peptide L2A] (H-GAFDIIKKIAESF-NH2)
MIC, P. aeruginosa ATCC 9027 [1]: 512 µg/mL (≈ 356 µM) | MBIC, P. aeruginosa ATCC 9027 [2]: > 512 µg/mL | MBEC, P. aeruginosa ATCC 9027 [3]: > 512 µg/mL | MIC, E. coli ATCC 25922 [4]: 256 µg/mL (≈ 178 µM) | MBIC, E. coli ATCC 25922 [5]: 512 µg/mL | MBEC, E. coli ATCC 25922 [6]: 512 µg/mL | MBIC, C. albicans ATCC 10231 [7]: 8 µg/mL | MBEC, C. albicans ATCC 10231 [8]: > 512 µg/mL | MIC, C. albicans ATCC 10231 [9]: 256 µg/mL (≈ 178 µM) | MIC, S. aureus ATCC 25923 [10]: > 512 µg/mL | MBIC, S. aureus ATCC 25923 [11]: > 512 µg/mL | MBEC, S. aureus ATCC 25923 [12]: > 512 µg/mL | remaining at 6 h, 0.125 mg/mL [13]: 6% | MBEC, E. faecalis PCM 2673 [14]: > 512 µg/mL | MIC, E. faecalis PCM 2673 [15]: 512 µg/mL (≈ 356 µM) | MBIC, E. faecalis PCM 2673 [16]: > 512 µg/mL | Percentage of hemolysis at 1 μg/mL [17]: 0.3% | Percentage of hemolysis at 2 μg/mL [17]: 0.6% | Percentage of hemolysis at 4 μg/mL [17]: 0.4% | Percentage of hemolysis at 8 μg/mL [17]: 0.2% | Percentage of hemolysis at 16 μg/mL [17]: 0.0% | Percentage of hemolysis at 32 μg/mL [17]: 0.0% | Percentage of hemolysis at 64 μg/mL [17]: 0.0% | Percentage of hemolysis at 128 μg/mL [17]: 0.0% | Percentage of hemolysis at 256 μg/mL [17]: 0.0%
